{
  "source": "patent US11649246B2",
  "about": "“Salts of 4-amino-N-(l-((3-chloro-2-fluorophenyl)amino)-6-methylisoquinolin-5-yl)thieno[3,2-D]pyrimidine-7-carboxamide, and crystalline forms thereof” (Hanmi Pharm. Co., Ltd., priority 2017, dated 2023)",
  "format_in_all_cases": "physicochemical",
  "key": {"[1]": {"test": "Stress stability test at 60° C.", "procedure": "In order to compare physicochemical stability among the crystalline form prepared in Example 3 (crystalline Formula (I) bis-hydrochloride Form I) and 16 (Formula (I) crystalline free base), and the amorphous form prepared in Comparative Example 1, a stress stability test was conducted by storing samples at 60° C., for different periods of time up to 4 weeks."}, "[2]": {"test": "Hygroscopicity by dynamic vapor sorption (DVS)", "settings": "Form I trihydrate", "procedure": "Dynamic vapor sorption (DVS) analysis was performed in a DVS advantage (Surface measurement system, United Kingdom) analyzer at 25° C. with a relative humidity of 0% to 90%. A sample in an amount of 10 mg was placed into a wire-mesh vapor sorption balance pan and then attached to a DVS advantage dynamic vapor sorption balance via surface measurement systems. […] Upon completion of the sorption cycle, the sample was dried using the same process while maintaining a relative humidity of 0%. The changes in the sample weight during the adsorption/desorption cycle (repeated 3 times) were recorded and the hygroscopicity of the sample was measured. DVS isotherm diagrams are presented in FIGS. 1, 3, 6, 10, 13, 16 and 19 where Target PP (%) refers to relative humidity, “SORP” refers to adsorption and “DESORP” refers to desorption.\nHygroscopicity was measured by DVS where the DVS curve for Formula (I) bis-hydrochloride was recorded in a DVS Advantage I analyzer (SMS, United Kingdom). The DVS was operated over 3 cycles for measurement of the surface adsorption effects of water, from 0% RH to 90% RH at 25°."}, "[3]": {"test": "Dissociation constant (pKa), GLpKa method, Sirius T3", "settings": "for pKa: MDM co-solvent solution (ISA Water/MeOH/ACN/p-Dioxane), 43% MDM solution", "procedure": "Based on these pKa values, Formula (I) is believed to be weakly basic compound.\nThe dissociation, pKa, was measured with a T3 (Sirius Analytical Instrument Ltd., UK). About 1 mg of Formula (I) bis-hydrochloride was transferred to a GLpKa beaker, dissolved with 43% to 53% MDM solution (ISA Water/MeOH/ACN/p-Dioxane=40/20/20/20, Sirius), adjusted to pH 1.8 with 0.5 N HCl, and titrated up to pH 12.2 with 0.5 N KOH. The pKa as an aqueous solution was calculated by extrapolation."}, "[4]": {"settings": "as an aqueous solution, calculated by extrapolation"}},
  "note": "Where two headings read alike, the source gives them in different places.",
  "data": [
    {"smiles": "Cc1ccc2c(Nc3cccc(Cl)c3F)nccc2c1NC(=O)c1csc2c(N)ncnc12", "note": "[Example 3, 4-amino-N-(1-((3-chloro-2-fluorophenyl)amino)-6-methylisoquinolin-5-yl)thieno[3,2-d]pyrimidine-7-carboxamide]", "values": [
      {"measurement": "Purity(%) (A % by HPLC)", "setting": "[1]; 2 weeks", "result": 99.8, "unit": "%"},
      {"measurement": "Total impurities(%) (A % by HPLC)", "setting": "[1]; 2 weeks", "result": 0.16, "unit": "%"},
      {"measurement": "Purity(%) (A % by HPLC)", "setting": "[1]; 4 weeks", "result": 99.8, "unit": "%"},
      {"measurement": "Total impurities(%) (A % by HPLC)", "setting": "[1]; 4 weeks", "result": 0.23, "unit": "%"},
      {"measurement": "Purity(%) (A % by HPLC)", "setting": "[1]; 1 day", "result": 99.8, "unit": "%"},
      {"measurement": "Total impurities(%) (A % by HPLC)", "setting": "[1]; 1 day", "result": 0.17, "unit": "%"},
      {"measurement": "Purity(%) (A % by HPLC)", "setting": "[1]; 3 days", "result": 99.8, "unit": "%"},
      {"measurement": "Total impurities(%) (A % by HPLC)", "setting": "[1]; 3 days", "result": 0.15, "unit": "%"},
      {"measurement": "Purity(%) (A % by HPLC)", "setting": "[1]; 7 days", "result": 99.8, "unit": "%"},
      {"measurement": "Total impurities(%) (A % by HPLC)", "setting": "[1]; 7 days", "result": 0.19, "unit": "%"},
      {"measurement": "Purity(%) (A % by HPLC)", "setting": "[1]; Initial", "result": 99.8, "unit": "%"},
      {"measurement": "Total impurities(%) (A % by HPLC)", "setting": "[1]; Initial", "result": 0.17, "unit": "%"},
      {"measurement": "physicochemical stability (summary in words)", "setting": "[1]; up to 4 weeks, listed as crystalline form (Form I) of the dihydrochloride", "result": "remarkably superior stability over the amorphous form"},
      {"measurement": "water content (DVS)", "setting": "[2]; at 20% relative humidity (sorption and desorption)", "result": "about 9%"},
      {"measurement": "water content (DVS)", "setting": "[2]; at 90% relative humidity (sorption and desorption)", "result": "about 14%"},
      {"measurement": "pKa", "setting": "[3]; column 1, read-out: pKa (first value)", "result": 3.85},
      {"measurement": "pKa", "setting": "[3]; column 1, read-out: pKa (second value)", "result": 4.71},
      {"measurement": "pKa", "setting": "[3]; column 1, read-out: pKa (third value)", "result": 10.4},
      {"measurement": "pKa", "setting": "[3]; column 2, read-out: pKa (first value)", "result": 3.88},
      {"measurement": "pKa", "setting": "[3]; column 2, read-out: pKa (second value)", "result": 4.7},
      {"measurement": "pKa", "setting": "[3]; column 2, read-out: pKa (third value)", "result": 10.4},
      {"measurement": "pKa", "setting": "[3]; column 3, read-out: pKa (first value)", "result": 3.84},
      {"measurement": "pKa", "setting": "[3]; column 3, read-out: pKa (second value)", "result": 4.69},
      {"measurement": "pKa", "setting": "[3]; column 3, read-out: pKa (third value)", "result": 10.4},
      {"measurement": "pKa1", "setting": "[3]; [4]", "result": 3.86},
      {"measurement": "pKa2", "setting": "[3]; [4]", "result": 4.73},
      {"measurement": "pKa3", "setting": "[3]; as an aqueous solution, calculated by extrapolation, listed as Formula (I) bis-hydrochloride Form I", "result": 10.3}
    ]}
  ]
}
